Columns and labels:
Epidermophyton floccosum = experiment: checkerboard drug interaction (FICI, MICc);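 note: simplified diagonal checkerboard screen pairing antifungals with FPPS inhibitors, FICI calculated under the Loewe additivity model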
Procedure: (§2) Drug interactions between antifungals and FPPS inhibitors were investigated using a simplified checkerboard diagonal screening method ([45]). […] FICIs were determined according to the Loewe additivity model ([17]).

[1] = system: Candida glabrata biofilms; experiment: biofilm XTT reduction assay (SIC80, SFICI); format: cell-based; settings: for SICc / SFICI: Candida glabrata
Excerpt: (§1) […]. […] […].

[2] = system: Aspergillus fumigatus biofilms; experiment: biofilm XTT reduction assay (SIC80, SFICI); format: cell-based; settings: for SICc / SFICI: Aspergillus fumigatus
Excerpt: as §1

[3] = system: Aspergillus flavus biofilms; experiment: biofilm XTT reduction assay (SIC80, SFICI); format: cell-based; settings: for SICc / SFICI: Aspergillus flavus
Excerpt: as §1

Trichophyton soudanense = experiment: checkerboard drug interaction (FICI, MICc); format: cell-based;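 note: simplified diagonal checkerboard screen pairing antifungals with FPPS inhibitors, FICI computed under the Loewe additivity model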
Procedure: as §2

Candida auris = experiment: checkerboard drug interaction (FICI, MICc); format: cell-based;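 note: simplified diagonal checkerboard screen pairing antifungals with FPPS inhibitors, with FICI computed under the Loewe additivity model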
Procedure: as §2

Mucor circinelloides = experiment: checkerboard drug interaction (FICI, MICc); format: cell-based;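 note: simplified diagonal checkerboard screen pairing antifungals with FPPS inhibitors, FICI calculated under the Loewe additivity model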
Procedure: as §2

Candida tropicalis = experiment: checkerboard drug interaction (FICI, MICc); format: cell-based;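 note: simplified diagonal checkerboard screen of antifungal plus FPPS inhibitor combinations, with FICI computed by the Loewe additivity model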
Procedure: as §2

[4] = system: 38 species of clinically relevant fungi; experiment: MIC summary across 38 species of clinically relevant fungi; format: cell-based; settings: 38 fungal species
Excerpt: […]; Table S3). […]. […] […]. […] […].

Cryptococcus tetragattii = experiment: checkerboard drug interaction (FICI, MICc); format: cell-based;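 note: simplified diagonal checkerboard screen pairing antifungals with FPPS inhibitors, with FICI calculated under the Loewe additivity model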
Procedure: as §2

[5] = system: Trichophyton interdigitale; experiment: checkerboard drug interaction (FICI, MICc);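 note: simplified diagonal checkerboard screen pairing antifungals with FPPS inhibitors, FICI values calculated under the Loewe additivity model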
Procedure: as §2

CCCCCCCCCCn1cc[n+](CC(O)(P(=O)(O)O)P(=O)(O)O)c1 [10-ZOL, Decyl-zoledronate]
0.38: SFICI ([2]; KET:10-ZOL)
2 µg/mL: SICc ([1]; KET:10-ZOL combination)
4 µg/mL: SICc ([1]; FLC:10-ZOL combination) | SICc ([1]; ITR:10-ZOL combination)
0.28: FICI (Trichophyton soudanense; FLC:10-ZOL)
128 µg/mL: SIC80 ([2]; agent alone, Aspergillus fumigatus ATCC 204305) | SIC80 ([3]; agent alone, Aspergillus flavus ATCC 204304)
≥4: FICI (Mucor circinelloides; 5FC:10-ZOL) | FICI (Mucor circinelloides; CAS:10-ZOL) | FICI (Candida tropicalis; CAS:10-ZOL)
0.75: SFICI ([2]; ITR:10-ZOL) | SFICI ([3]; KET:10-ZOL)
0.61: FICI (Trichophyton soudanense; VOR:10-ZOL)
0.5: bisphosphonate MICc (Epidermophyton floccosum; with 5FC) | bisphosphonate MICc (Epidermophyton floccosum; with AMB) | bisphosphonate MICc (Trichophyton soudanense; with CAS) | bisphosphonate MICc (Trichophyton soudanense; with FLC) | FICI (Candida auris; FLC:10-ZOL) | bisphosphonate MICc (Candida auris; with CAS) | bisphosphonate MICc (Candida auris; with FLC) | bisphosphonate MICc (Mucor circinelloides; with CAS) | FICI (Candida tropicalis; VOR:10-ZOL) | bisphosphonate MICc (Candida tropicalis; with VOR) | FICI (Cryptococcus tetragattii; KET:10-ZOL) | bisphosphonate MICc (Cryptococcus tetragattii; with 5FC) | bisphosphonate MICc (Cryptococcus tetragattii; with VOR) | bisphosphonate MICc ([5]; with KET)
0.5 to 8 µg/mL: overall MIC range [4]
3: FICI ([5]; CAS:10-ZOL)
16 µg/mL: SICc ([2]; KET:10-ZOL combination) | SICc ([3]; FLC:10-ZOL combination)
0.63: SFICI ([1]; FLC:10-ZOL) | SFICI ([2]; FLC:10-ZOL) | SFICI ([3]; FLC:10-ZOL)
1.48: FICI (Cryptococcus tetragattii; VOR:10-ZOL)
8 µg/mL: SIC80 ([1]; agent alone, Candida glabrata CBS138)
0.063: bisphosphonate MICc (Cryptococcus tetragattii; with AMB)
2: FICI (Epidermophyton floccosum; AMB:10-ZOL) | FICI (Trichophyton soudanense; 5FC:10-ZOL) | bisphosphonate MICc (Trichophyton soudanense; with 5FC) | FICI (Mucor circinelloides; AMB:10-ZOL)
1.39 ± 1.6 µg/mL: MIC ([4]; read-out: GM MIC)
0.50: SFICI ([1]; KET:10-ZOL)
0.125: bisphosphonate MICc (Epidermophyton floccosum; with ITR) | bisphosphonate MICc (Trichophyton soudanense; with ITR) | bisphosphonate MICc (Candida auris; with ITR) | bisphosphonate MICc (Mucor circinelloides; with KET) | bisphosphonate MICc (Mucor circinelloides; with VOR) | bisphosphonate MICc (Candida tropicalis; with AMB) | bisphosphonate MICc (Candida tropicalis; with ITR) | bisphosphonate MICc (Cryptococcus tetragattii; with FLC) | bisphosphonate MICc (Cryptococcus tetragattii; with ITR) | bisphosphonate MICc (Cryptococcus tetragattii; with KET) | bisphosphonate MICc ([5]; with ITR)
1.5: FICI (Epidermophyton floccosum; 5FC:10-ZOL) | FICI (Candida auris; 5FC:10-ZOL) | FICI (Mucor circinelloides; ITR:10-ZOL) | FICI (Candida tropicalis; 5FC:10-ZOL) | FICI ([5]; 5FC:10-ZOL)
0.25: bisphosphonate MICc (Epidermophyton floccosum; with CAS) | bisphosphonate MICc (Epidermophyton floccosum; with FLC) | bisphosphonate MICc (Epidermophyton floccosum; with VOR) | bisphosphonate MICc (Trichophyton soudanense; with AMB) | bisphosphonate MICc (Trichophyton soudanense; with VOR) | bisphosphonate MICc (Candida auris; with AMB) | bisphosphonate MICc (Candida tropicalis; with KET) | bisphosphonate MICc ([5]; with AMB)
1: bisphosphonate MICc (Epidermophyton floccosum; with KET) | bisphosphonate MICc (Trichophyton soudanense; with KET) | bisphosphonate MICc (Candida auris; with 5FC) | bisphosphonate MICc (Candida auris; with KET) | bisphosphonate MICc (Candida auris; with VOR) | bisphosphonate MICc (Mucor circinelloides; with 5FC) | bisphosphonate MICc (Mucor circinelloides; with AMB) | bisphosphonate MICc (Mucor circinelloides; with FLC) | bisphosphonate MICc (Mucor circinelloides; with ITR) | bisphosphonate MICc (Candida tropicalis; with 5FC) | bisphosphonate MICc (Candida tropicalis; with CAS) | bisphosphonate MICc (Candida tropicalis; with FLC) | bisphosphonate MICc (Cryptococcus tetragattii; with CAS) | bisphosphonate MICc ([5]; with 5FC) | bisphosphonate MICc ([5]; with CAS) | bisphosphonate MICc ([5]; with FLC)
1.00: SFICI ([1]; ITR:10-ZOL) | SFICI ([3]; ITR:10-ZOL)
2.13: FICI (Cryptococcus tetragattii; CAS:10-ZOL)
32 µg/mL: SICc ([2]; ITR:10-ZOL combination) | SICc ([3]; KET:10-ZOL combination)
64 µg/mL: SICc ([2]; FLC:10-ZOL combination) | SICc ([3]; ITR:10-ZOL combination)

Source: article PMC12892976, “Alkylation-based optimization of antifungal FPPS inhibitors yields a potent, broad-spectrum lipophilic zoledronate derivative” (mBio, 2025)
